# Laboratory results reported in patent US9630914B2, “Multitarget FAAH and COX inhibitors and therapeutical uses thereof” (FONDAZIONE ISTITUTO ITALIANO DI TECNOLOGIA, priority 2012, dated 2017).
# pIC50: −log10 of the molar value. Like-named read-outs stand apart in the source and are kept apart here.
# How the values were obtained:
# [1] = tested on: carrageenan-induced inflammation and hyperalgesia; experiment: Carrageenan test (paw edema and thermal hyperalgesia); type: in vivo, mice
# Excerpt: (§1) Male CD1 mice, weighing 25-30 g, (Charles River, Calco, Italy) were used. Procedures were in accordance with the Ethical Guidelines of the International Association for the Study of Pain and were approved by Italian regulations on protection of animals used for experimental and other scientific purposes (D. M. 116192) as well as with European Economic Community regulations (O. J. of E. C. L 358/1 Dec. 18, 1986). Mice were housed in groups of 5 in ventilated cages containing autoclaved cellulose paper as nesting material, with free access to food and water. They were maintained under a 12 h light/dark cycle (lights on at 08:00 a.m.), at controlled temperature (21±1° C.) and relative humidity (55±10%). The animals are randomly divided in groups of 6 mice. Behavioral testing was performed between 9:00 a.m. and 5:00 p.m. Scientists running the experiments were not aware of the treatment protocol at the time of the test (blind procedure).
# The pro-inflammatory agent λ-carrageenan (1% weight-vol^−1 in sterile water, 50 μL) was injected into the left hind paw of slightly restrained mice, and paw volume was measured with a plethysmometer (Ugo Basile, Comerio, Italy), while thermal hyperalgesia was assessed by the method of Hargreaves et al. (1988), measuring the latency to withdraw the hind paw from a focused beam of radiant heat (thermal intensity: infrared 3.0) in a plantar test apparatus (Ugo Basile, Comerio, Italy). Cutoff time was set at 30 s. Withdrawal latencies were measured on both ipsilateral and contralateral paws at various time points after drug administration.
# Drug solutions were prepared immediately before use in saline containing 10% PEG-400 and 10% Tween 80 and orally administered in a volume of 2.5 mL-kg^−1 before intraplantar injection of carrageenan.
# Results are expressed as the mean±S.E.M., or 95% confidence limits (95% CL). Efficacy data were compared using two-way analysis of variance (ANOVA) followed by Bonferroni's test for multiple comparisons. For gastric toxicity, the significance of differences between groups was determined by one-way ANOVA followed by a Bonferroni's test for multiple comparisons.
# gastric mucosa = experiment: Gastric lesions (gastric irritation, ulceration index); type: in vivo; conditions: food-deprived mice
# Excerpt: as §1
# To study the gastric irritation the protocol of Chan et al. (1995) was followed. […] After 4 h, the mice were killed by CO2 asphyxiation. The stomachs were removed, opened, rinsed in PBS, and the stomach lining was photographed. Scoring was done by observers blinded to experimental conditions, as previously reported (Jain et al., 2002): red coloration=0.5; spot ulcers=1; hemorrhagic streaks=1.5. […]
# ovine COX-1 = ovine COX-1 (Ovis aries (Sheep), UniProt P05979); experiment: In vitro COX assay (COX Inhibitor Screening Assay Kit), COX-1; type: biochemical; conditions: 5 μM arachidonic acid
# Protocol: COX activity was measured using a commercial kit (COX Inhibitor Screening Assay Kit—Cayman Chemical N. 560131) which includes both ovine COX-1 and human recombinant COX-2 enzymes. Inhibitors were pre-incubated with either ovine COX-1 or human COX-2 in order to screen isozyme-specific inhibition. Differently than described in the kit protocol, the reaction was carried out in the presence of 5 μM arachidonic acid while for the blank sample (no activity) the two enzymes were inactivated for 40 minutes at 100° C. It was then measured the amount of PGF2α produced by reduction with SnCl2 of COX-derived PGH2, via enzyme immunoassay (EIA) using a PG-specific antibody and competing with a PG-acetylcholinesterase conjugate.
# Absorbance was measured at 412 nm with a Tecan Infinite M200 plate reader and data were processed according to manufacturer's instructions.
# The median inhibitory concentrations (IC50) were determined by non-linear regression analysis of the Log [concentration]/response curves generated with mean replicate values using a four parameter Hill equation curve fitting with GraphPad Prism 5 (GraphPad Software Inc., CA-USA).
# FAAH = conditions: literature value; cited from earlier work
# [2] = oral, 3, 10, 30 and 100 mg/kg, mouse
# Chain of ovine COX-1 (P05979 25-600): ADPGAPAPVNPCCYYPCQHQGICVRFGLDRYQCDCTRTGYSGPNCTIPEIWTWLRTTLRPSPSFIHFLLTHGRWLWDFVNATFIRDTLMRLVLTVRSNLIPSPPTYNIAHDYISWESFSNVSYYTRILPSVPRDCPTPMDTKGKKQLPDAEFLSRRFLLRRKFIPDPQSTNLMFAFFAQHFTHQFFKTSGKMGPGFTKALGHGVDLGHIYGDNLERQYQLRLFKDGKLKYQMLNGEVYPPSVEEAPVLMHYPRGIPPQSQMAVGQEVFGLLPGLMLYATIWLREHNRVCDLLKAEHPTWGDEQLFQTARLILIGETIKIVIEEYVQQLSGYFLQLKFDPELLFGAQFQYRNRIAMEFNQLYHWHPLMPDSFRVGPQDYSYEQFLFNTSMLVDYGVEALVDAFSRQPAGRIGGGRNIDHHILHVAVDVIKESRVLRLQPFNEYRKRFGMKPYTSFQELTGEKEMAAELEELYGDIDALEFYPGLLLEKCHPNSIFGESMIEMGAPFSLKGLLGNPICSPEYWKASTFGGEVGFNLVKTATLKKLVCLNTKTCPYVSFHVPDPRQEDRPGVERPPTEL
compound,measurement,setting,value
"CC(C(=O)O)c1ccc(-c2ccccc2)c(F)c1 (stereo not shown) [Compound A, flurbiprofen, reference compound]",ED50,"[1]; oral, mouse carrageenan model, read-out: ED50 on edema (Δ volume paw)",30 mg/kg
same,ED50,"[1]; oral, mouse carrageenan model, read-out: ED50 on thermal hyperalgesia (withdrawal latency)",30 mg/kg
same,gastric irritation and gastric ulcers,gastric mucosa; oral 30 mg/kg,profound gastric irritation and appearance of gastric ulcers
"CCCCCCNC(=O)Oc1cccc(-c2ccc(C(C)C(=O)O)cc2F)c1 (stereo not shown) [Example 12, 2-[3-fluoro-4-[3-(hexylcarbamoyloxy)phenyl]phenyl]propanoic acid]",ED50,"[1]; Mus musculus, read-out: ED50 on edema (Δ volume paw)",10 mg/kg
same,ED50,"[1]; Mus musculus, read-out: ED50 on thermal hyperalgesia (withdrawal latency)",10 mg/kg
same,effect on carrageenan-induced inflammation and hyperalgesia,[1]; [2],dose-dependent and persistent suppression
same,"potency at inhibiting the responses induced by carrageenan, compared with compound A",[1]; [2],more potent than oral compound A
same,pIC50,ovine COX-1,7.92
same,ulcerogenic effect,"gastric mucosa; oral, up to 100 mg/kg",no ulcerogenic effect
Cc1cccnc1NC(=O)C(C)c1ccc(CC(C)C)cc1 (stereo not shown) [Ibu-am5],pIC50,FAAH,5.57
